26 compounds from patent US20240317721A1, “PYRAZOLYL DERIVATIVES AS INHIBITORS OF THE KRAS MUTANT PROTEIN” (NOVARTIS AG, priority 2021, published 2024) can be followed below.

Molecules are shown by their SMILES.

In this experiment the target is KRasG12C (M1-K169, biotinylated on the N-terminus) (Homo sapiens (Human), UniProt P01116, G12C). The experiment is described as follows: Covalent competition assay: scintillation proximity assay (SPA) quantifying covalent modification of KRASG12C. The following applies: competition with radiolabeled covalent probe (Compound B/Compound A), 2 hours incubation, 10 nM KRasG12C. The format is binding. An outline of the steps:
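Test compounds compete with a radiolabeled covalent probe for modification of N-terminally biotinylated KRasG12C(M1-K169):GDP, final 10 nM protein, 25 nM radio-ligand, 475 nM unlabelled ligand, 2 h with agitation in 20 mM Tris-HCl pH 7.5, 150 mM NaCl, 0.1 mM MgCl2, 0.01% Tween-20.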
(In general: Scintillation proximity formats need no separation of bound from free tracer.)
As usually defined, the IC50 is the concentration at which inhibition is half-maximal. With `C=CC(=O)N1CC2(CC(n3nc(N4C[C@H](C)N(C5COC5)CC4(C)C)c(-c4c(Cl)c(Cl)cc5[nH]ncc45)c3C)C2)C1` (single isomer, unassigned) [Example 104b], the IC50 was found to be 27 nM. With `C=CC(=O)N1CC2(CC(n3nc(N4CCN(C5COC5)C[C@]4(C)CC)c(-c4c(Cl)c(C)cc5[nH]ncc45)c3C)C2)C1` (single isomer, unassigned) [Example 133b] the figure was 5 nM; with `C=CC(=O)N1CC2(CC(n3nc(N4CCC5(CN(C6COC6)C5)CC4(C)C)c(-c4c(Cl)c(C)cc5[nH]ncc45)c3C)C2)C1` (single isomer, unassigned) [Example 91a, 1-(6-(4-(5-chloro-6-methyl-1H-indazol-4-yl)-3-(6,6-dimethyl-2-(oxetan-3-yl)-2,7-diazaspiro[3.5]nonan-7-yl)-5-methyl-1H-pyrazol-1-yl)-2-azaspiro[3.3]heptan-2-yl)prop-2-en-1-one], 2900 nM. The same measure for `C=CC(=O)N1CC2(CC(n3nc(N4CCN(C5CCOC5)CC45CCC5)c(-c4c(Cl)c(C)cc5[nH]ncc45)c3C)C2)C1` (single isomer, unassigned) [Example 132d, 1-(6-(4-(5-chloro-6-methyl-1H-indazol-4-yl)-5-methyl-3-(8-(tetrahydrofuran-3-yl)-5,8-diazaspiro[3.5]nonan-5-yl)-1H-pyrazol-1-yl)-2-azaspiro[3.3]heptan-2-yl)prop-2-en-1-one]: 29 nM; for `C=CC(=O)N1CC2(CC(n3nc(N4CCC(C(=O)N5CCN(C)CC5)CC4(C)C)c(-c4c(Cl)c(Cl)cc5[nH]ncc45)c3C)C2)C1` (single isomer, unassigned) [Example 211b, 1-(6-(4-(5,6-dichloro-1H-indazol-4-yl)-3-(2,2-dimethyl-4-(4-methylpiperazine-1-carbonyl)piperidin-1-yl)-5-methyl-1H-pyrazol-1-yl)-2-azaspiro[3.3]heptan-2-yl)prop-2-en-1-one]: 8 nM; for `C=CC(=O)N1CC2(CC(n3nc(N4CCN(C5COC5)C[C@]4(C)COC)c(-c4c(Cl)c(C)cc5[nH]ncc45)c3C)C2)C1` (single isomer, unassigned) [Example 147b]: 923 nM. With `C=CC(=O)N1CC2(CC(n3nc(N4CCN(C(C)C)CC45CCC5)c(-c4c(Cl)c(C)cc5[nH]ncc45)c3C)C2)C1` (single isomer, unassigned) [Example 131a, 1-(6-(4-(5-chloro-6-methyl-1H-indazol-4-yl)-3-(8-isopropyl-5,8-diazaspiro[3.5]nonan-5-yl)-5-methyl-1H-pyrazol-1-yl)-2-azaspiro[3.3]heptan-2-yl)prop-2-en-1-one] the figure was greater than 5000 nM.

For `C=CC(=O)N1CC2(CC(n3nc(N4CC[C@@H](CN5CC6C5CCN6C5COC5)CC4(C)C)c(-c4c(Cl)c(Cl)cc5[nH]ncc45)c3C)C2)C1` (single isomer, unassigned) [Example 277b, 1-(6-(4-(5,6-dichloro-1H-indazol-4-yl)-3-((R)-2,2-dimethyl-4-(((1S*,5S*)-2-(oxetan-3-yl)-2,6-diazabicyclo[3.2.0]heptan-6-yl)methyl)piperidin-1-yl)-5-methyl-1H-pyrazol-1-yl)-2-azaspiro[3.3]heptan-2-yl)prop-2-en-1-one], the IC50 is less than 5 nM. In the case of `C=CC(=O)N1CC2(CC(n3nc(N4CCN(CC5COCCOC5)CC45CCC5)c(-c4c(Cl)c(C)cc5[nH]ncc45)c3C)C2)C1` (single isomer, unassigned) [Example 185a, 1-(6-(3-(8-((1,4-dioxepan-6-yl)methyl)-5,8-diazaspiro[3.5]nonan-5-yl)-4-(5-chloro-6-methyl-1H-indazol-4-yl)-5-methyl-1H-pyrazol-1-yl)-2-azaspiro[3.3]heptan-2-yl)prop-2-en-1-one], the IC50 worked out at 4100 nM. Take `C=CC(=O)N1CC2(CC(n3nc(N4CCN(C5CCOCC5)C[C@@]4(CC)C(F)F)c(-c4c(Cl)c(C)cc5[nH]ncc45)c3C)C2)C1` (single isomer, unassigned) [Example 156a]: the IC50 is greater than 5000 nM. The same measure for `C=CC(=O)N1CC2(CC(n3nc(N4CC[C@@H](CN5CCN(C6COC6)C6COCC65)CC4(C)C)c(-c4c(Cl)c(Cl)cc5[nH]ncc45)c3C)C2)C1` (single isomer, unassigned) [Example 281b, 1-(6-(4-(5,6-dichloro-1H-indazol-4-yl)-3-((R)-2,2-dimethyl-4-(((4aS*,7aR*)-4-(oxetan-3-yl)hexahydrofuro[3,4-b]pyrazin-1(2H)-yl)methyl)piperidin-1-yl)-5-methyl-1H-pyrazol-1-yl)-2-azaspiro[3.3]heptan-2-yl)prop-2-en-1-one]: less than 5 nM.

Turning to `C=CC(=O)N1CC2(CC(n3nc(N4CC[C@@H](CN5CCN(C6COC6)CC5)CC4(C)C)c(-c4c(Cl)c(F)cc5[nH]ncc45)c3C)C2)C1` (single isomer, unassigned) [Example 245b], the IC50 was 14 nM. The same measure for `C=CC(=O)N1CC2(CC(n3nc(N4CCCCC4(C)C)c(-c4c(Cl)c(C)cc5[nH]ncc45)c3C)C2)C1` (single isomer, unassigned) [Example 103b, 1-(6-(4-(5-chloro-6-methyl-1H-indazol-4-yl)-3-(2,2-dimethylpiperidin-1-yl)-5-methyl-1H-pyrazol-1-yl)-2-azaspiro[3.3]heptan-2-yl)prop-2-en-1-one]: 315 nM; for `C=CC(=O)N1CC2(CC(n3nc(N4CCN(C(C)=O)C[C@@H]4CC)c(-c4c(Cl)c(C)cc5[nH]ncc45)c3C)C2)C1` (single isomer, unassigned) [Example 94a]: greater than 50000 nM; for `C=CC(=O)N1CC2(CC(n3nc(N4CC[C@@H](CN5CC6(C5)CS(=O)(=O)C6)CC4(C)C)c(-c4c(Cl)c(Cl)cc5[nH]ncc45)c3C)C2)C1` (single isomer, unassigned) [Example 248a]: greater than 5000 nM. Take `C=CC(=O)N1CC2(CC(n3nc(N4CCN(C5CCCOC5)C[C@]4(C)CC)c(-c4c(Cl)c(C)cc5[nH]ncc45)c3C)C2)C1` (single isomer, unassigned) [Example 157d]: the IC50 was determined as 7 nM. The same measure for `C=CC(=O)N1CC2(CC(n3cc(-c4c(Cl)c(C)cc5[nH]ncc45)c(N4CC[C@@H](CN5CCOCC5)CC4(C)C)n3)C2)C1` [Example 223, (R)-1-(6-(4-(5-chloro-6-methyl-1H-indazol-4-yl)-3-(2,2-dimethyl-4-(morpholinomethyl)piperidin-1-yl)-1H-pyrazol-1-yl)-2-azaspiro[3.3]heptan-2-yl)prop-2-en-1-one]: 600 nM.

Consider `C=CC(=O)N1CC2(CC(n3nc(N4CCN(C)CC45CCC5)c(-c4c(Cl)c(C)cc5[nH]ncc45)c3C)C2)C1` (single isomer, unassigned) [Example 55a, 1-(6-(4-(5-chloro-6-methyl-1H-indazol-4-yl)-5-methyl-3-(8-methyl-5,8-diazaspiro[3.5]nonan-5-yl)-1H-pyrazol-1-yl)-2-azaspiro[3.3]heptan-2-yl)prop-2-en-1-one], for which the IC50 worked out at 24700 nM. With `C=CC(=O)N1CC2(CC(n3nc(N4CC[C@H](N(C)C(C)=O)CC4(C)C)c(-c4c(Cl)c(C)cc5[nH]ncc45)c3C)C2)C1` (single isomer, unassigned) [Example 70a] the figure was 287 nM; with `C=CC(=O)N1CC2(CC(n3nc(N4CCN(CC(C)(C)O)C[C@@]4(C)C(F)F)c(-c4c(Cl)c(C)cc5[nH]ncc45)c3C)C2)C1` (single isomer, unassigned) [Example 166a], greater than 5000 nM. The same measure for `C=CC(=O)N1CC2(CC(n3nc(N4CC[C@@H](CN5CC6OCCN(C)C6C5)CC4(C)C)c(-c4c(Cl)c(Cl)cc5[nH]ncc45)c3C)C2)C1` (single isomer, unassigned) [Example 260a, 1-(6-(4-(5,6-dichloro-1H-indazol-4-yl)-3-((R)-2,2-dimethyl-4-(((4aR*,7aS*)-4-methylhexahydropyrrolo[3,4-b][1,4]oxazin-6(2H)-yl)methyl)piperidin-1-yl)-5-methyl-1H-pyrazol-1-yl)-2-azaspiro[3.3]heptan-2-yl)prop-2-en-1-one]: greater than 5000 nM; for `C=CC(=O)N1CC2(CC(n3nc(N4CCN(Cc5cn(C)nn5)C[C@]4(C)CC)c(-c4c(Cl)c(C)cc5[nH]ncc45)c3C)C2)C1` (single isomer, unassigned) [Example 188a]: 387 nM. The same measure for `C=CC(=O)N1CC2(CC(n3nc(N4CC5(CCOC5)C4)c(-c4c(Cl)c(Cl)cc5[nH]ncc45)c3C)C2)C1` (single isomer, unassigned) [Example 108b, 1-(6-(4-(5,6-dichloro-1H-indazol-4-yl)-5-methyl-3-(6-oxa-2-azaspiro[3.4]octan-2-yl)-1H-pyrazol-1-yl)-2-azaspiro[3.3]heptan-2-yl)prop-2-en-1-one]: 576 nM; for `C=CC(=O)N1CC2(CC(n3nc(N4CC[C@@H](CN5CCCC6CN(C)C(=O)C65)CC4(C)C)c(-c4c(Cl)c(Cl)cc5[nH]ncc45)c3C)C2)C1` (single isomer, unassigned) [Example 262b, (4aR*,7aR*)-1-(((R)-1-(1-(2-acryloyl-2-azaspiro[3.3]heptan-6-yl)-4-(5,6-dichloro-1H-indazol-4-yl)-5-methyl-1H-pyrazol-3-yl)-2,2-dimethylpiperidin-4-yl)methyl)-6-methyloctahydro-7H-pyrrolo[3,4-b]pyridin-7-one]: 7 nM; for `C=CC(=O)N1CC2(CC(n3nc(N4CCN(C5COC5)CC4(C)C)c(-c4c(Cl)c(C)cc5[nH]ncc45)c3C)C2)C1` (single isomer, unassigned) [Example 67a, 1-(6-(4-(5-chloro-6-methyl-1H-indazol-4-yl)-3-(2,2-dimethyl-4-(oxetan-3-yl)piperazin-1-yl)-5-methyl-1H-pyrazol-1-yl)-2-azaspiro[3.3]heptan-2-yl)prop-2-en-1-one]: greater than 50000 nM. With `C=CC(=O)N1CC2(CC(n3nc(N4CC[C@@H](CN5CCO[C@@H](C(N)=O)C5)CC4(C)C)c(-c4c(Cl)c(Cl)cc5[nH]ncc45)c3C)C2)C1` (single isomer, unassigned) [Example 271b], the IC50 worked out at 14 nM.
